The test system of one data set is NIH3T3 cells. In words: MTT assay. The class given is cell-based. Conditions: data not shown. A general note: Tetrazolium dyes change colour on reduction, which living cells bring about.
Data set [1] concerns the target T1, POU domain of OCT1 (POU1) (Homo sapiens, UniProt P14859).
T1 construct: 6xHis (pET28 N-terminal histidine tag) (N); made in house; host or cells: E. coli BL21
T1 sequence (P14859 280-438): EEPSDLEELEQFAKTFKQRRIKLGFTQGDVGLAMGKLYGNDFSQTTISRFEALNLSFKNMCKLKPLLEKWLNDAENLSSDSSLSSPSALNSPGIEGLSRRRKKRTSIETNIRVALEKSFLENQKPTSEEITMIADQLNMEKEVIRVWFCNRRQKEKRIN
In words: Thermal shift assay (TSA). Format: binding. Conditions: compound 10 μM, POU1 5 μM. Here is the method:
Following primers were used for the amplification:
POU1 and BOB1 proteins (each at a final concentration 5 μM), compound 005 (final concentration 10 μM), and 1× ProteOrange fluorescent dye (Lumiprobe, Russia) were mixed in triplicates in 100 μL of 0.1 M phosphate buffered saline pH 7.4 per and pipetted into 96-well 0.2-mL thin-wall PCR plates (Roche Life Science, Switzerland) sealed with optical-grade sealing film. Fluorescence data were acquired on a LightCycler® 96 Real Time PCR Instrument (Roche Life Science, Switzerland) with an excitation range of 470-533 nm. The fluorescence emission signal at […] was measured for data analysis. The temperature was held for 30 sec per degree from 37 to 98° C. (ramp rate of […]). The derivatives of the fluorescence signal as function of the temperature were used for further analysis.

The subject of another data set is B cells. In words: GZMB+ B cell expansion. Format: cell-based, human. As to conditions: 10 μM added daily, day 3. Here is the method: B cells were kept unstimulated (B resting) or stimulated (B expanded) for 24 hours with the expansion mixture containing F(ab′)2 anti-BCR, CpG ODN, CD40L, IL-2, and IL-21. FIG. 6A-B show the expression level of granzyme B measured as frequency (FIG. 6A) and by the MFI (FIG. 6B) in DMSO-treated (compound 005-) and 10 μM compound 005-treated resting (open circles) and expanded for 3 days (closed circles) B cells. […] Representative offset histogram overlays showing median fluorescence intensity of staining of gated live […] with cell proliferation dye (CPD) (FIGS. 6C, 6E and 6F). […]
Primary total human B cells (1×10^6 cells/mL) were prestimulated for ˜24 h with the cocktail containing 10 ng/mL of IL-21 (Miltenyi Biotec), 5 μg/mL of F(ab′)2 anti-BCR Abs (Jackson ImmunoResearch Laboratories Inc.), 50 ng/ml of CD40L (R&D systems), 1 μg/mL of CpG oligonucleotides (ODN 2006, Invivogen), and 50 U/mL of IL-2 (Novartis) as previously described, in the presence of vehicle (DMSO) or 10 μM compound 005. […] The capacity of B cells to suppress effector T cell proliferation was assessed as previously described. […] T cell proliferation was evaluated as the percentage of CPD-low T cells on day 3. […]

The values that follow come from patent publication US20250177412A1, “SMALL-MOLECULE INHIBITORS TARGETING THE BOB1/OCT1 INTERFACE” (NANTES UNIVERSITE, priority 2022, published 2025).

In the data set with NIH3T3 cells, `Cc1ccc(NC(=O)C2CN(c3nc(NCCCc4ccc(F)cc4)nc(NCCC(=O)O)n3)c3ccccc3O2)cc1Cl` (stereo not drawn) [compound 005, 3-((4-(2-((3-chloro-4-methylphenyl)carbamoyl)-2,3-dihydro-4H-benzo[b][1,4]oxazin-4-yl)-6-((3-(4-fluorophenyl)propyl)amino)-1,3,5-triazin-2-yl)amino)propanoic acid] yielded a concentration showing toxicity of no less than 80 µM. Also, the “increase of POU1 melting temperature” value in data set [1] is “about 4 °C”. For the same molecule, in the data set with B cells, the GZMB expression result is “did not affect”.
